Assays:
Assay type in all cases: in vivo
[1] = system: upland rice (Oryza sp., var.Tebonnet, RICE); assay: Post-emerge greenhouse test, crop damage rating; conditions: 14 days after application, scale 0-100
Summary of the method: (§1)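 Compounds in acetone with 0.25% v/v non-ionic surfactant were track-sprayed at 187 l/ha over plants at the 2-3 leaf stage, at 63 to 1000 g ai/ha. Pots were bottom-watered. Injury was scored visually 14 days later on a 0-100 scale, where 0 is no damage and 100 is complete plant death.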

[2] = system: field corn (Zea mays L., var. Dekalb 535, CORN); assay: Post-emerge greenhouse test, crop damage rating; conditions: 14 days after application, scale 0-100
Summary of the method: as §1

[3] = system: redroot pigweed (Amaranthus retroflexus, AMARE); assay: Pre-emerge greenhouse herbicide test, phytotoxicity rating; conditions: 14 days after application, rating scale 0-100
Summary of the method: (§2)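 Seeds sown in sandy loam mix one day before track-sprayer application of compounds in acetone at 125–1000 g ai/ha (187 l/ha), then surface-watered to incorporate and bottom-watered. Visual rating 14 days after application on a 0–100 scale (0 = no damage, 100 = all plants dead).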

[4] = system: ivyleaf morningglory (Ipomoea hederacea, IPOHE); assay: as above; conditions: 14 days after application, rating scale 0-100
Summary of the method: as §2

[5] = system: large crabgrass (Digitaria sanguinalis, DIGSA); assay: as above; conditions: 14 days after application, rating scale 0-100
Summary of the method: as §2

[6] = system: barnyardgrass (Echinochloa crusgalli, ECHCG); assay: as above; conditions: 14 days after application, rating scale 0-100
Summary of the method: as §2

[7] = system: Johnsongrass (Sorghum halepense, SORHA); assay: as above; conditions: 14 days after application, rating scale 0-100
Summary of the method: as §2

[8] = system: sicklepod (Cassia obtusifolia, CASOB); assay: as above; conditions: 14 days after application, rating scale 0-100
Summary of the method: as §2

[9] = system: lambsquarters (Chenopodium album, CHEAL); assay: as above; conditions: 14 days after application, rating scale 0-100
Summary of the method: as §2

[10] = system: green foxtail (Setaria viridis, SETVI); assay: as above; conditions: 14 days after application, rating scale 0-100
Summary of the method: as §2

[11] = system: velvetleaf (Abutilon theophrasti, ABUTH); assay: as above; conditions: 14 days after application, rating scale 0-100
Summary of the method: as §2

[12] = system: common ragweed (Ambrosia artemisiifolia L., AMBEL); assay: as above; conditions: 14 days after application, rating scale 0-100
Summary of the method: as §2

[13] = system: common ragweed (Ambrosia artemisiifolia L., AMBEL); assay: Post-emerge greenhouse herbicide test, phytotoxicity rating; conditions: 14 days after application, scale 0-100
Summary of the method: as §1

[14] = system: upland rice (Oryza sp., var.Tebonnet, RICE); assay: Pre-emerge greenhouse test, crop damage rating; conditions: 14 days after application, rating scale 0-100
Summary of the method: as §2

[15] = system: field corn (Zea mays L., var. Dekalb 535, CORN); assay: Pre-emerge greenhouse test, crop damage rating; conditions: 14 days after application, rating scale 0-100
Summary of the method: as §2

[16] = system: soybean (Glycine max L., var. Pella 86, SOY); assay: Post-emerge greenhouse test, crop damage rating; set-up: key to crop damage rating SOY: 0-100 scale: 0 = no damage, 100 = complete death of all plants; conditions: 14 days after application, scale 0-100
Summary of the method: as §1

[17] = system: redroot pigweed (Amaranthus retroflexus, AMARE); assay: Post-emerge greenhouse herbicide test, phytotoxicity rating; conditions: 14 days after application, scale 0-100
Summary of the method: as §1

[18] = system: ivyleaf morningglory (Ipomoea hederacea, IPOHE); assay: as above; conditions: 14 days after application, scale 0-100
Summary of the method: as §1

[19] = system: large crabgrass (Digitaria sanguinalis, DIGSA); assay: as above; conditions: 14 days after application, scale 0-100
Summary of the method: as §1

[20] = system: barnyardgrass (Echinochloa crusgalli, ECHCG); assay: as above; conditions: 14 days after application, scale 0-100
Summary of the method: as §1

[21] = system: Johnsongrass (Sorghum halepense, SORHA); assay: as above; conditions: 14 days after application, scale 0-100
Summary of the method: as §1

[22] = system: sicklepod (Cassia obtusifolia, CASOB); assay: as above; conditions: 14 days after application, scale 0-100
Summary of the method: as §1

[23] = system: lambsquarters (Chenopodium album, CHEAL); assay: as above; conditions: 14 days after application, scale 0-100
Summary of the method: as §1

[24] = system: green foxtail (Setaria viridis, SETVI); assay: as above; conditions: 14 days after application, scale 0-100
Summary of the method: as §1

[25] = system: velvetleaf (Abutilon theophrasti, ABUTH); assay: as above; conditions: 14 days after application, scale 0-100
Summary of the method: as §1

[26] = system: soybean (Glycine max L., var. Pella 86, SOY); assay: Pre-emerge greenhouse test, crop damage rating; set-up: key to SOY crop damage rating: 0 = no damage, 100 = complete death of all plants; conditions: 14 days after application, rating scale 0-100
Summary of the method: as §2

O=c1n(-c2cc(Oc3nc(F)c(F)cc3F)c(Cl)cc2F)c(=S)n2n1CCCC2 [Compound 8-28] was tested, and the “crop damage rating RICE” value ([1]; rate 63 g ai/ha) was 10, the “crop damage rating RICE” value ([1]; rate 500 g ai/ha) was 40 and the “crop damage rating CORN” value ([2]; rate 63 g ai/ha) was 10. The “crop damage rating CORN” value ([2]; rate 500 g ai/ha) was 20, the AMARE phytotoxicity rating ([3]; Rate 125 g al/ha) was 100 and the AMARE phytotoxicity rating ([3]; Rate 500 g al/ha) was 100. It also gave an IPOHE phytotoxicity rating ([4]; Rate 125 g al/ha) of 30, an IPOHE phytotoxicity rating ([4]; Rate 500 g al/ha) of 40 and a DIGSA phytotoxicity rating ([5]; Rate 125 g al/ha) of 100. It also gave a DIGSA phytotoxicity rating ([5]; Rate 500 g al/ha) of 100, an ECHCG phytotoxicity rating ([6]; Rate 125 g al/ha) of 60 and an ECHCG phytotoxicity rating ([6]; Rate 500 g al/ha) of 95. It also gave an SORHA phytotoxicity rating ([7]; Rate 125 g al/ha) of 90, an SORHA phytotoxicity rating ([7]; Rate 500 g al/ha) of 95 and a CASOB phytotoxicity rating ([8]; Rate 125 g al/ha) of 100. For the same compound, the CASOB phytotoxicity rating ([8]; Rate 500 g al/ha) was 90, the CHEAL phytotoxicity rating ([9]; Rate 125 g al/ha) was 100 and the CHEAL phytotoxicity rating ([9]; Rate 500 g al/ha) was 100. It also gave an SETVI phytotoxicity rating ([10]; Rate 125 g al/ha) of 100, an SETVI phytotoxicity rating ([10]; Rate 500 g al/ha) of 100 and an ABUTH phytotoxicity rating ([11]; Rate 125 g al/ha) of 100. For the same compound, the ABUTH phytotoxicity rating ([11]; Rate 500 g al/ha) was 100, the AMBEL phytotoxicity rating ([12]; Rate 125 g al/ha) was 80 and the AMBEL phytotoxicity rating ([12]; Rate 500 g al/ha) was 100. The “phytotoxicity rating AMBEL” value ([13]; rate 63 g ai/ha) was 50, the “phytotoxicity rating AMBEL” value ([13]; rate 500 g ai/ha) was 90 and the “RICE crop damage rating” value ([14]; Rate 125 g al/ha) was 25. For the same compound, the “RICE crop damage rating” value ([14]; Rate 500 g al/ha) was 70, the “CORN crop damage rating” value ([15]; Rate 125 g al/ha) was 15 and the “CORN crop damage rating” value ([15]; Rate 500 g al/ha) was 15. The “crop damage rating SOY” value ([16]; rate 63 g ai/ha) was 50, the “crop damage rating SOY” value ([16]; rate 500 g ai/ha) was 90 and the “phytotoxicity rating AMARE” value ([17]; rate 63 g ai/ha) was 100. The “phytotoxicity rating AMARE” value ([17]; rate 500 g ai/ha) was 100, the “phytotoxicity rating IPOHE” value ([18]; rate 63 g ai/ha) was 90 and the “phytotoxicity rating IPOHE” value ([18]; rate 500 g ai/ha) was 95. For the same compound, the “phytotoxicity rating DIGSA” value ([19]; rate 63 g ai/ha) was 20, the “phytotoxicity rating DIGSA” value ([19]; rate 500 g ai/ha) was 30 and the “phytotoxicity rating ECHCG” value ([20]; rate 63 g ai/ha) was 10. The “phytotoxicity rating ECHCG” value ([20]; rate 500 g ai/ha) was 80, the “phytotoxicity rating SORHA” value ([21]; rate 63 g ai/ha) was 40 and the “phytotoxicity rating SORHA” value ([21]; rate 500 g ai/ha) was 60. The “phytotoxicity rating CASOB” value ([22]; rate 63 g ai/ha) was 50, the “phytotoxicity rating CASOB” value ([22]; rate 500 g ai/ha) was 100 and the “phytotoxicity rating CHEAL” value ([23]; rate 63 g ai/ha) was 90. For the same compound, the “phytotoxicity rating CHEAL” value ([23]; rate 500 g ai/ha) was 100, the “phytotoxicity rating SETVI” value ([24]; rate 63 g ai/ha) was 30 and the “phytotoxicity rating SETVI” value ([24]; rate 500 g ai/ha) was 90. For the same compound, the “phytotoxicity rating ABUTH” value ([25]; rate 63 g ai/ha) was 100, the “phytotoxicity rating ABUTH” value ([25]; rate 500 g ai/ha) was 100 and the “SOY crop damage rating” value ([26]; Rate 125 g al/ha) was 10. The “SOY crop damage rating” value ([26]; Rate 500 g al/ha) was 10.
